Where a SMILES comes first, the peptide text is derived from it. Bridges are numbered along the chain shown (N, C = ends). Where no end group is shown, it is not given here.
Biological target: T1, rat PAC1 receptor (Rattus norvegicus, UniProt P32215)
T1 construct: SHSY-5Y (human neuroblastoma cell line) and RG-2 (rat glioma cell line) cells endogenously express human and rat PAC1 receptors, respectively; endogenous in cells; host or cells: RG-2 rat glioma cells
T1 sequence (P32215 20-523): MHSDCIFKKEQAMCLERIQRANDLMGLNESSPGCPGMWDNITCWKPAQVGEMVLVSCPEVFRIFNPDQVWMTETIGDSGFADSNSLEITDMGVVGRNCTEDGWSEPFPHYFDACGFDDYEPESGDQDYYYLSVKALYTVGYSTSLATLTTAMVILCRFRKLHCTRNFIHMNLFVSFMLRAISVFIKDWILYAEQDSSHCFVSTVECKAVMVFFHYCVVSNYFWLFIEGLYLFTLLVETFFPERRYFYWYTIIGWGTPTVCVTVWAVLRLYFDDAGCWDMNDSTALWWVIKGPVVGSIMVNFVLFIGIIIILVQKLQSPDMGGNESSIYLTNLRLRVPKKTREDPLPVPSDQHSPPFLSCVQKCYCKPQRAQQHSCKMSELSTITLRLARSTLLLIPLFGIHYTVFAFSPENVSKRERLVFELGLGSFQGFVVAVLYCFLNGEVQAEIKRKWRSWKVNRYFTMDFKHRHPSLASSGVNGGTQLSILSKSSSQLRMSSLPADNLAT
Assay: LANCE Ultra cAMP accumulation antagonist assay in RG-2 cells;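 note: RG-2 rat glioma cells endogenously expressing PAC1, test peptide preincubated 30 min, then PAC1 agonist added at its EC80 for 15 min, cAMP accumulation read by LANCE Ultra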
Type: cell-based

Compound	IC50
CDATCQFRKAIDDCQKQAHHSNVPGSVFKACMKQKKKEFKAGGGGS (disulfide 1-5, 14-31) [compound 177]	0.01 to 1 nM
CC[C@H](C)[C@H](NC(=O)[C@H](C)NC(=O)[C@H](CCCCN)NC(=O)[C@H](CCCNC(=N)N)NC(=O)[C@H](Cc1ccccc1)NC(=O)[C@H](CCC(N)=O)NC(=O)[C@@H]1CSSC[C@H](N)C(=O)N[C@@H](CC(=O)O)C(=O)N[C@@H](C)C(=O)N[C@@H]([C@@H](C)O)C(=O)N1)C(=O)N[C@@H](CC(=O)O)C(=O)N[C@@H](CC(=O)O)C(=O)N[C@H]1CSSC[C@@H](C(=O)N[C@@H](CCSC)C(=O)N[C@@H](CCCCN)C(=O)N[C@@H](CCC(N)=O)C(=O)N[C@@H](CCCCN)C(=O)N[C@@H](CCCCN)C(=O)N[C@@H](CCCCN)C(=O)N[C@@H](CCC(=O)O)C(=O)N[C@@H](Cc2c[nH]c3ccccc23)C(=O)N[C@@H](CCCCN)C(=O)N[C@@H](Cc2c[nH]cn2)C(=O)O)NC(=O)[C@H](C)NC(=O)[C@H](CCCCN)NC(=O)[C@H](Cc2ccccc2)NC(=O)[C@H](CO)NC(=O)[C@H](Cc2c[nH]cn2)NC(=O)[C@H](Cc2ccc(O)cc2)NC(=O)[C@H](C)NC(=O)[C@H](CCC(N)=O)NC(=O)[C@H](CCCNC(=N)N)NC(=O)[C@H](C)NC1=O [compound 450] (H-CDATCQFRKAIDDCARQAYHSFKACMKQKKKEWKH-OH; disulfide 1-5, 14-25)	1 to 100 nM
CC[C@H](C)[C@@H]1NC(=O)[C@@H](NC(=O)[C@H](CCCCN)NC(=O)[C@H](CCCNC(=N)N)NC(=O)[C@H](Cc2ccccc2)NC(=O)[C@H](CCC(N)=O)NC(=O)[C@H](CO)NC(=O)[C@@H](NC(=O)[C@H](C)NC(=O)[C@H](CC(=O)O)NC(=O)[C@@H](N)CO)[C@@H](C)O)CSSC[C@@H](C(=O)N[C@@H](CCCCN)C(=O)N[C@@H](CCC(N)=O)C(=O)N[C@@H](CCCCN)C(=O)N[C@@H](CCCCN)C(=O)N[C@@H](CCCCN)C(=O)N[C@@H](CCC(=O)O)C(=O)N[C@@H](Cc2c[nH]c3ccccc23)C(=O)N[C@@H](CCCCN)C(=O)N[C@@H](C)C(=O)NCC(=O)N[C@@H](Cc2c[nH]cn2)C(=O)O)NC(=O)[C@H](CO)NC(=O)[C@H](C)NC(=O)[C@H](CCCCN)NC(=O)[C@H](Cc2ccccc2)NC(=O)[C@H](C)NC(=O)CNC(=O)[C@H](CO)NC(=O)[C@H](CC(=O)O)NC(=O)[C@H](CC(=O)O)NC1=O [compound 441] (H-SDATSQFRKCIDDSGAFKASCKQKKKEWKAGH-OH; disulfide 10-21)	1 to 100 nM
CDATCQFRKAIDDCQKQAHHSNVPGSVFKACMKQKKKEFKAGF (disulfide 1-5, 14-31) [compound 172]	0.01 to 1 nM
ACDATCQFRKAIDDCQKQAHHSNVPGSVFKACMKQKKKEFKAG-NH2 (disulfide 2-6, 15-32) [compound 184]	0.01 to 1 nM
MCDATCQFRKAIDDCQKQAHHSNVPGSVFKACMKQKKKEFKAGHHHHH (disulfide 2-6, 15-32) [compound 199]	0.01 to 1 nM
CC[C@H](C)[C@H](NC(=O)[C@H](C)NC(=O)[C@H](CCCCN)NC(=O)[C@H](CCCNC(=N)N)NC(=O)[C@H](Cc1ccccc1)NC(=O)[C@H](CCC(N)=O)NC(=O)[C@H](CO)NC(=O)[C@@H](NC(=O)[C@H](C)N)[C@@H](C)O)C(=O)N[C@@H](CC(=O)O)C(=O)N[C@@H](CC(=O)O)C(=O)N[C@H]1CSSC[C@@H](C(=O)N[C@@H](CCSC)C(=O)N[C@@H](CCCCN)C(=O)N[C@@H](CCC(N)=O)C(=O)N[C@@H](CCCCN)C(=O)N[C@@H](CCCCN)C(=O)N[C@@H](CCCCN)C(=O)N[C@@H](CCC(=O)O)C(=O)N[C@@H](Cc2c[nH]c3ccccc23)C(=O)N[C@@H](CCCCN)C(=O)O)NC(=O)[C@H](C)NC(=O)[C@H](CCCCN)NC(=O)[C@H](Cc2ccccc2)NC(=O)[C@H](C(C)C)NC(=O)[C@H](CO)NC(=O)[C@H](CO)NC(=O)[C@H](Cc2c[nH]cn2)NC(=O)[C@H](Cc2ccc(O)cc2)NC(=O)[C@H](C)NC(=O)[C@H](CCC(N)=O)NC(=O)[C@H](CCCNC(=N)N)NC(=O)[C@H](C)NC1=O [compound 440] (H-ATSQFRKAIDDCARQAYHSSVFKACMKQKKKEWK-OH; disulfide 12-25)	1 to 100 nM
CC[C@H](C)[C@H](NC(=O)[C@H](C)NC(=O)[C@H](CCCCN)NC(=O)[C@H](CCCNC(=N)N)NC(=O)[C@H](Cc1ccccc1)NC(=O)[C@H](CCC(N)=O)NC(=O)[C@@H]1CSSC[C@H](N)C(=O)N[C@@H](CC(=O)O)C(=O)N[C@@H](C)C(=O)N[C@@H]([C@@H](C)O)C(=O)N1)C(=O)N[C@@H](CC(=O)O)C(=O)N[C@@H](CC(=O)O)C(=O)N[C@H]1CSSC[C@@H](C(=O)N[C@@H](CCSC)C(=O)N[C@@H](CCCCN)C(=O)N[C@@H](CCC(N)=O)C(=O)N[C@@H](CCCCN)C(=O)N[C@@H](CCCCN)C(=O)N[C@@H](CCCCN)C(=O)N[C@@H](CCC(=O)O)C(=O)N[C@@H](Cc2c[nH]c3ccccc23)C(=O)N[C@@H](CCCCN)C(=O)N[C@@H](C)C(=O)NCC(N)=O)NC(=O)[C@H](C)NC(=O)[C@H](CCCCN)NC(=O)[C@H](Cc2ccccc2)NC(=O)[C@H](C(C)C)NC(=O)[C@H](CO)NC(=O)[C@H](CO)NC(=O)[C@H](Cc2c[nH]cn2)NC(=O)[C@H](Cc2ccc(O)cc2)NC(=O)[C@H](CO)NC(=O)[C@H](CCC(N)=O)NC(=O)[C@H](CCCNC(=N)N)NC(=O)[C@H](C)NC1=O [compound 432] (H-CDATCQFRKAIDDCARQSYHSSVFKACMKQKKKEWKAG-NH2; disulfide 1-5, 14-27)	< 0.01 nM
CC[C@H](C)[C@H](NC(=O)[C@H](C)NC(=O)[C@H](CCCCN)NC(=O)[C@H](CCCNC(=N)N)NC(=O)[C@H](Cc1ccccc1)NC(=O)[C@H](CCC(N)=O)NC(=O)[C@@H]1CSSC[C@H](N)C(=O)N[C@@H](CC(=O)O)C(=O)N[C@@H](C)C(=O)N[C@@H]([C@@H](C)O)C(=O)N1)C(=O)N[C@@H](CC(=O)O)C(=O)N[C@@H](CC(=O)O)C(=O)N[C@H]1CSSC[C@@H](C(=O)N[C@@H](CCSC)C(=O)N[C@@H](CCCCN)C(=O)N[C@@H](CCC(N)=O)C(=O)N[C@@H](CCCCN)C(=O)N[C@@H](CCCCN)C(=O)N[C@@H](CCCCN)C(=O)N[C@@H](CCC(=O)O)C(=O)N[C@@H](Cc2c[nH]c3ccccc23)C(=O)N[C@@H](CCCCN)C(=O)N[C@@H](C)C(=O)NCC(N)=O)NC(=O)[C@H](C)NC(=O)[C@H](CCCCN)NC(=O)[C@H](Cc2ccccc2)NC(=O)[C@H](C(C)C)NC(=O)[C@H](CO)NC(=O)[C@H](C)NC(=O)[C@H](Cc2c[nH]cn2)NC(=O)[C@H](Cc2ccc(O)cc2)NC(=O)[C@H](C)NC(=O)[C@H](CCC(N)=O)NC(=O)[C@H](CCCNC(=N)N)NC(=O)[C@H](C)NC1=O [compound 428] (H-CDATCQFRKAIDDCARQAYHASVFKACMKQKKKEWKAG-NH2; disulfide 1-5, 14-27)	< 0.01 nM
CC[C@H](C)[C@H](NC(=O)[C@H](C)NC(=O)[C@H](CCCCN)NC(=O)[C@H](CCCNC(=N)N)NC(=O)[C@H](Cc1ccccc1)NC(=O)[C@H](CCC(N)=O)NC(=O)[C@@H]1CSSC[C@H](N)C(=O)N[C@@H](CC(=O)O)C(=O)N[C@@H](C)C(=O)N[C@@H]([C@@H](C)O)C(=O)N1)C(=O)N[C@@H](CC(=O)O)C(=O)N[C@@H](CC(=O)O)C(=O)N[C@H]1CSSC[C@@H](C(=O)N[C@@H](CCSC)C(=O)N[C@@H](CCCCN)C(=O)N[C@@H](CCC(N)=O)C(=O)N[C@@H](CCCCN)C(=O)N[C@@H](CCCCN)C(=O)N[C@@H](CCCCN)C(=O)N[C@@H](CCC(=O)O)C(=O)N[C@@H](Cc2c[nH]c3ccccc23)C(=O)N[C@@H](CCCCN)C(=O)N[C@@H](C)C(=O)NCC(N)=O)NC(=O)[C@H](C)NC(=O)[C@H](CCCCN)NC(=O)[C@H](Cc2ccccc2)NC(=O)[C@H](C(C)C)NC(=O)[C@H](CO)NC(=O)[C@H](CO)NC(=O)[C@H](Cc2c[nH]cn2)NC(=O)[C@H](Cc2ccc(O)cc2)NC(=O)[C@H](C)NC(=O)[C@H](CO)NC(=O)[C@H](CCCNC(=N)N)NC(=O)[C@H](C)NC1=O [compound 431] (H-CDATCQFRKAIDDCARSAYHSSVFKACMKQKKKEWKAG-NH2; disulfide 1-5, 14-27)	< 0.01 nM
CC[C@H](C)[C@H](NC(=O)[C@H](C)NC(=O)[C@H](CCCCN)NC(=O)[C@H](CCCNC(=N)N)NC(=O)[C@H](Cc1ccccc1)NC(=O)[C@H](CCC(N)=O)NC(=O)[C@@H]1CSSC[C@H](N)C(=O)N[C@@H](CC(=O)O)C(=O)N[C@@H](C)C(=O)N[C@@H]([C@@H](C)O)C(=O)N1)C(=O)N[C@@H](CC(=O)O)C(=O)N[C@@H](CC(=O)O)C(=O)N[C@H]1CSSC[C@@H](C(=O)N[C@@H](CCSC)C(=O)N[C@@H](CCCCN)C(=O)N[C@@H](CCC(N)=O)C(=O)N[C@@H](CCCCN)C(=O)N[C@@H](CCCCN)C(=O)N[C@@H](CCCCN)C(=O)N[C@@H](CCC(=O)O)C(=O)N[C@@H](Cc2ccccc2)C(=O)N[C@@H](CCCCN)C(=O)N[C@@H](C)C(=O)NCC(=O)O)NC(=O)[C@H](C)NC(=O)[C@H](CCCCN)NC(=O)[C@H](Cc2ccccc2)NC(=O)[C@H](C(C)C)NC(=O)[C@H](CO)NC(=O)CNC(=O)[C@@H]2CCCN2C(=O)[C@H](C(C)C)NC(=O)[C@H](CC(N)=O)NC(=O)[C@H](CO)NC(=O)[C@H](Cc2c[nH]cn2)NC(=O)[C@H](Cc2c[nH]cn2)NC(=O)[C@H](C)NC(=O)[C@H](CCC(N)=O)NC(=O)[C@H](CCCCN)NC(=O)[C@H](CCC(N)=O)NC1=O [SEQ ID NO 190]	0.01 to 1 nM

— patent US20210395313A1, “PEPTIDE PAC1 ANTAGONISTS” (AMGEN INC., priority 2017, published 2021)
